Test results reported in US9758520B2, “Substituted fused heterocycles as GPR119 modulators for the treatment of diabetes, obesity, dyslipidemia and related disorders” (SANOFI, priority 2014, dated 2017).

Target: T1, human GPR119 (Homo sapiens, UniProt Q8TDV5)
T1 construct: expressed in transfected cells
T1 sequence (Q8TDV5 1-335): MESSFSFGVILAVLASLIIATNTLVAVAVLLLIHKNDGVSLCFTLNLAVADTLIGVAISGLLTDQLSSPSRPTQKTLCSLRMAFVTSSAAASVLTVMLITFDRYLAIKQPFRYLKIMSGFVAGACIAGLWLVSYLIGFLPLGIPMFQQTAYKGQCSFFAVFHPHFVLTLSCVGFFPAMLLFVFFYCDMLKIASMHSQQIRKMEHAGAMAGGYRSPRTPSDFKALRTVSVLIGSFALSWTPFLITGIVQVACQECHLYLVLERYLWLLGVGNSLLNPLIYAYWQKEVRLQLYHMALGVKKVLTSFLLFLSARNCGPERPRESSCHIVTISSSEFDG
Experiment: Functional cellular assay measuring GPR119-mediated cAMP release (HTRF) in HEK-293 cells stably expressing recombinant GPR119
Format: cell-based
Conditions: cAMP response, cell line expressing human GPR119 (HEK-293), 30 minutes at room temperature
Method: Functional Cellular Assays Measuring GPR119-Mediated cAMP Release
Compounds of the invention, which are agonists of GPR119, were characterized by functional assays measuring the cAMP response of HEK-293 cell lines stably expressing recombinant GPR119 from man, mouse or rat, or by using a hamster cell line HIT-T15 expressing GPR119 endogenously. The cAMP content was determined using a kit based on homogenous time-resolved fluorescence (HTRF) from Cisbio Corp. (cat. no. 62AM4PEC). For preparation, cells were split into T175 culture flasks and grown to near confluency in medium (DMEM/10% FCS for HEK-293 cells, and F-12K medium/10% horse serum/2.5% FCS for HIT-T15 cells, respectively). Medium was then removed and cells washed with PBS lacking calcium and magnesium ions, followed by proteinase treatment with accutase (Sigma-Aldrich, cat. no. A6964). Detached cells were washed and resuspended in assay buffer (1×HBSS; 20 mM HEPES, 0.1% BSA, 2 mM IBMX) and cellular density determined. They were then diluted to 400000 cells/mL and 25 μL-aliquots dispensed to the wells of 96-well plates. For measurement, 25 μL of test compound in assay buffer was added and incubated for 30 minutes at room temperature. After addition of HTRF reagents diluted in lysis buffer, the plates were incubated for 1 hour, followed by measuring the fluorescence ratio at 665 vs. 620 nm. Potency of the agonists was quantified by determining the concentrations that caused 50% of the maximal response/activation (EC50). See Table 3 for exemplary data obtained using the cell line expressing human GPR119.

For `COC(=O)c1nc2ccc(N3CC[C@@H](Oc4ccc(OCC5CC5)nc4)C3=O)cn2n1` [Example 1-08, methyl 6-[(3R)-3-[[6-(cyclopropylmethoxy)-3-pyridyl]oxy]-2-oxo-pyrrolidin-1-yl]-[1,2,4]triazolo[1,5-a]pyridine-2-carboxylate], which EC50 is on record?
Its EC50 is 5540 nM.

For `Cn1nc2c(F)cc(N3CC[C@@H](Oc4ccc(OCC5CC5)nc4)C3=O)cn2c1=O` [Example 1-27, 6-[(3R)-3-[[6-(cyclopropylmethoxy)-3-pyridyl]oxy]-2-oxo-pyrrolidin-1-yl]-8-fluoro-2-methyl-[1,2,4]triazolo[4,3-a]pyridin-3-one], which EC50 is on record?
The EC50 was 1870 nM.

`O=C(O)Cn1cc2ccc(N3CC[C@@H](Oc4ccc(OCC5CC5)nc4)C3=O)cc2n1` [Example 1-16, 2-[6-[(3R)-3-[[6-(cyclopropylmethoxy)-3-pyridyl]oxy]-2-oxo-pyrrolidin-1-yl]indazol-2-yl]acetic acid] was tested. Which EC50 did it give?
Its EC50 is 12000 nM.

Which EC50 does the source give for `COC(=O)Cn1cc2ccc(N3CC[C@@H](Oc4ccc(OCC5CC5)nc4)C3=O)cc2n1` [Example 1-15, methyl 2-[6-[(3R)-3-[[6-(cyclopropylmethoxy)-3-pyridyl]oxy]-2-oxo-pyrrolidin-1-yl]indazol-2-yl]acetate] here?
The EC50 was 924 nM.

Which EC50 does the source give for `Cn1nc2ccc(N3CC[C@@H](Oc4ccc(OCC5CC5)nc4)C3=O)cc2n1` [Example 1-21, (3R)-3-[[6-(cyclopropylmethoxy)-3-pyridyl]oxy]-1-(2-methylbenzotriazol-5-yl)pyrrolidin-2-one] here?
The EC50 was 2050 nM.

Which EC50 does the source give for `O=C(O)Cn1nc2ccc(N3CC[C@@H](Oc4ccc(OCC5CC5)nc4)C3=O)cn2c1=O` [Example 1-24, 2-[6-[(3R)-3-[[6-(cyclopropylmethoxy)-3-pyridyl]oxy]-2-oxo-pyrrolidin-1-yl]-3-oxo-[1,2,4]triazolo[4,3-a]pyridin-2-yl]acetic acid] here?
The EC50 was 6170 nM.

For `Cn1nc2ccc(N3CC[C@@H](Oc4ccc(OCC5CC5)nc4)C3=O)cn2c1=O` [Example 1-23, 6-[(3R)-3-[[6-(cyclopropylmethoxy)-3-pyridyl]oxy]-2-oxo-pyrrolidin-1-yl]-2-methyl-[1,2,4]triazolo[4,3-a]pyridin-3-one], which EC50 is on record?
The EC50 was 4200 nM.

How did the EC50 turn out when `CN(C)C(=O)Cn1nc2c(F)cc(N3CC[C@@H](Oc4ccc(OCC5CC5)nc4)C3=O)cn2c1=O` [Example 2-01, 2-[6-[(3R)-3-[[6-(cyclopropylmethoxy)-3-pyridyl]oxy]-2-oxo-pyrrolidin-1-yl]-8-fluoro-3-oxo-[1,2,4]triazolo[4,3-a]pyridin-2-yl]-N,N-dimethyl-acetamide] was run?
The EC50 was 126 nM.

Which EC50 does the source give for `CN(C)C(=O)Cn1nc2ccc(N3CC[C@@H](Oc4ccc(OCC5CC5)nc4)C3=O)cc2n1` [Example 2-03, 2-[5-[(3R)-3-[[6-(cyclopropylmethoxy)-3-pyridyl]oxy]-2-oxo-pyrrolidin-1-yl]benzotriazol-2-yl]-N,N-dimethyl-acetamide] here?
The EC50 was 127 nM.

Which EC50 does the source give for `COC(=O)Cn1nc2c(F)cc(N3CC[C@@H](Oc4ccc(OCC5CC5)nc4)C3=O)cn2c1=O` [Example 1-28, methyl 2-[6-[(3R)-3-[[6-(cyclopropylmethoxy)-3-pyridyl]oxy]-2-oxo-pyrrolidin-1-yl]-8-fluoro-3-oxo-[1,2,4]triazolo[4,3-a]pyridin-2-yl]acetate] here?
Its EC50 is 70 nM.

For `O=C(O)Cn1nc2ccc(N3CC[C@@H](Oc4ccc(OCC5CC5)nc4)C3=O)cc2n1` [Example 1-17, 2-[5-[(3R)-3-[[6-(cyclopropylmethoxy)-3-pyridyl]oxy]-2-oxo-pyrrolidin-1-yl]benzotriazol-2-yl]acetic acid], which EC50 is on record?
Its EC50 is 2110 nM.

How did the EC50 turn out when `CN(C)C(=O)Cn1nc2ccc(N3CC[C@@H](Oc4ccc(C(=O)CC5CC5)cc4)C3=O)cn2c1=O` [Example 1-12, 2-[6-[(3R)-3-[4-(2-cyclopropylacetyl)phenoxy]-2-oxo-pyrrolidin-1-yl]-3-oxo-[1,2,4]triazolo[4,3-a]pyridin-2-yl]-N,N-dimethyl-acetamide] was run?
The EC50 was 269 nM.

For `O=C1[C@H](Oc2ccc(OCC3CC3)nc2)CCN1c1ccc2nc(C3CC3)nn2c1` [Example 1-01, (3R)-3-[[6-(Cyclopropylmethoxy)-3-pyridyl]oxy]-1-(2-cyclopropyl-[1,2,4]triazolo[1,5-a]pyridin-6-yl)pyrrolidin-2-one], which EC50 is on record?
Its EC50 is 11300 nM.

Which EC50 does the source give for `O=C(O)Cc1nc2ccc(N3CC[C@@H](Oc4ccc(OCC5CC5)nc4)C3=O)cn2n1` [Example 1-06, 2-[6-[(3R)-3-[[6-(cyclopropylmethoxy)-3-pyridyl]oxy]-2-oxo-pyrrolidin-1-yl]-[1,2,4]triazolo[1,5-a]pyridin-2-yl]acetic acid] here?
Its EC50 is 17300 nM.

For `O=C1[C@H](Oc2ccc(OCC3CC3)nc2)CCN1c1ccc2n[nH]c(=O)n2c1` [Example 1-14, 6-[(3R)-3-[[6-(cyclopropylmethoxy)-3-pyridyl]oxy]-2-oxo-pyrrolidin-1-yl]-2H-[1,2,4]triazolo[4,3-a]pyridin-3-one], which EC50 is on record?
The EC50 was 701 nM.

How did the EC50 turn out when `O=C1[C@H](Oc2ccc(OCC3CC3)nc2)CCN1c1ccc2ncnn2c1` [Example 1-02, (3R)-3-[[6-(cyclopropylmethoxy)-3-pyridyl]oxy]-1-([1,2,4]triazolo[1,5-a]pyridin-6-yl)pyrrolidin-2-one] was run?
The EC50 was 851 nM.

Which EC50 does the source give for `CN(C)C(=O)Cn1nc2ccc(N3CC[C@@H](Oc4ccc(OCC5CC5)nc4)C3=O)cn2c1=O` [Example 1-09, 2-[6-[(3R)-3-[[6-(cyclopropylmethoxy)-3-pyridyl]oxy]-2-oxo-pyrrolidin-1-yl]-3-oxo-[1,2,4]triazolo[4,3-a]pyridin-2-yl]-N,N-dimethyl-acetamide] here?
The EC50 was 191 nM.

With `CS(=O)(=O)Cn1nc2ccc(N3CC[C@@H](Oc4ccc(Oc5ccc(F)cc5)nc4)C3=O)cn2c1=O` [Example 1-31, 6-[(3R)-3-[[6-(4-fluorophenoxy)-3-pyridyl]oxy]-2-oxo-pyrrolidin-1-yl]-2-(methylsulfonylmethyl)-[1,2,4]triazolo[4,3-a]pyridin-3-one] as the molecule, how does the EC50 read?
The EC50 was 365 nM.

With `CS(=O)(=O)Cn1nc2ccc(N3CC[C@@H](Oc4ccc(C(=O)C5CC5)cc4)C3=O)cn2c1=O` [Example 1-32, 6-[(3R)-3-[4-(cyclopropanecarbonyl)phenoxy]-2-oxo-pyrrolidin-1-yl]-2-(methylsulfonylmethyl)-[1,2,4]triazolo[4,3-a]pyridin-3-one] as the molecule, how does the EC50 read?
Its EC50 is 196 nM.

Which EC50 does the source give for `O=C1[C@H](Oc2ccc(OCC3CC3)nc2)CCN1c1ccc2nncn2c1` [Example 1-05, (3R)-3-[[6-(cyclopropylmethoxy)-3-pyridyl]oxy]-1-([1,2,4]triazolo[4,3-a]pyridin-6-yl)pyrrolidin-2-one] here?
Its EC50 is 7990 nM.

`COC(=O)Cc1cn2cc(N3CC[C@@H](Oc4ccc(OCC5CC5)nc4)C3=O)ccc2n1` [Example 1-20, methyl 2-[6-[(3R)-3-[[6-(cyclopropylmethoxy)-3-pyridyl]oxy]-2-oxo-pyrrolidin-1-yl]imidazo[1,2-a]pyridin-2-yl]acetate] was tested. Which EC50 did it give?
The EC50 was 9920 nM.

Which EC50 does the source give for `COC(=O)Cn1c(C)c2ccc(N3CC[C@@H](Oc4ccc(OCC5CC5)nc4)C3=O)cn2c1=O` [Example 1-04, methyl 2-[6-[(3R)-3-[[6-(cyclopropylmethoxy)-3-pyridyl]oxy]-2-oxo-pyrrolidin-1-yl]-1-methyl-3-oxo-imidazo[1,5-a]pyridin-2-yl]acetate] here?
Its EC50 is 155 nM.

With `COC(=O)Cn1nc2ccc(N3CC[C@@H](Oc4ccc(OCC5CC5)nc4)C3=O)cn2c1=O` [Example 1-26, methyl 2-[6-[(3R)-3-[[6-(cyclopropylmethoxy)-3-pyridyl]oxy]-2-oxo-pyrrolidin-1-yl]-3-oxo-[1,2,4]triazolo[4,3-a]pyridin-2-yl]acetate] as the molecule, how does the EC50 read?
Its EC50 is 113 nM.
